details: not given

SMILES | log10 Koc (L/kg) | melting point [°C] | boiling point [°C] | log10 vapour pressure (mmHg) | ready biodegradability | log10 Henry constant (atm·m³/mol) | log10 Koa
COc1cc(OC)nc(NC(=O)NS(=O)(=O)c2ncccc2C(=O)N(C)C)n1 | 1.48 | 142 |  |  |  |  | 
CCCCCCCCCCCCCC(=O)Cl |  | -1 |  |  |  |  | 
CCCCC(C)(CC)CC |  |  | 164 |  |  |  | 
c1ccc(Cc2ccccc2)cc1 |  | 25.2 | 265 | -2.09 | not readily biodegradable |  | 
CC(=O)CCCCC(C)=O |  | 44 |  |  |  |  | 
Cc1ccc2c(c1)CC(C)CC2 (stereo not drawn) |  |  | 237 |  |  |  | 
O=[N+]([O-])/N=C1\NCCN1Cc1ccc(Cl)nc1 |  | 144 |  |  |  |  | 
CC(C)(C)c1cccc(C(C)(C)C)n1 |  | 2.2 |  |  |  |  | 
CCCC(C(C)=O)C(=O)OCC (stereo not drawn) |  |  | 224 |  |  |  | 
O=C(O)c1cccc(C(=O)O)c1 |  | 347 |  |  | readily biodegradable |  | 
CCCCOC(=O)N(C)SN(C)C(=O)Oc1cccc2c1OC(C)(C)C2 |  |  |  | -7.53 |  |  | 
CC(=O)Nc1ccc2c(c1)Cc1ccccc1-2 | 3.14 | 193 | 303 |  |  |  | 
CC1=CC[C@@H]2C[C@@H](C[C@]3(CC[C@H](C)[C@@H](C)O3)O2)OC(=O)[C@@H]2C=C(C)[C@@H](O)[C@H]3OCC(=CC=C[C@H](C)C1)[C@]32O |  | 214 |  |  |  |  | 
C=C(C)c1ccc(C(C)(C)N=C=O)cc1 |  |  |  | -2.33 |  |  | 
ClCC#CCCl |  |  | 166 |  |  |  | 
O=C(O)C(F)(F)F |  | -15.2 | 73 | 2.04 |  | -6.95 | 
COC(=O)CC(C)C |  |  | 116 | 1.15 |  |  | 
CCCCC(CC)(CO)CO |  | 43.8 | 262 | -4 | not readily biodegradable |  | 
COc1ccccc1Br |  | 2.5 | 216 |  |  |  | 
NCC1CCC(C(=O)O)CC1 (stereo not drawn) |  |  |  |  | not readily biodegradable |  | 
CCC(=O)Oc1ccccc1 |  | 20 | 211 |  |  |  | 
OCCOc1ccccc1 |  | 14 | 245 | -2.15 |  |  | 
CC(=O)Oc1cc(C)c(OC(C)=O)c2ccccc12 |  | 113 |  |  |  |  | 
OB(c1ccccc1)c1ccccc1 |  | 57.5 |  |  |  |  | 
CC=Cc1ccccc1O |  | -6 | 220 |  |  |  | 

SMILES | log10 Koc (L/kg) | melting point [°C] | boiling point [°C] | log10 vapour pressure (mmHg) | ready biodegradability | log10 Henry constant (atm·m³/mol) | log10 Koa
CC(C)CCC[C@@H](C)[C@H]1CC[C@H]2C3=CC=C4C[C@@H](O)CC[C@]4(C)[C@H]3CC[C@]12C |  | 150 |  |  |  |  | 
COC(F)(F)C(Cl)Cl |  | -35 | 105 |  |  | -2.43 | 
CC(O)c1ccccc1 (stereo not drawn) | 1.5 | 15 | 205 |  | readily biodegradable |  | 
Clc1ccc(-c2c(Cl)cc(Cl)c(Cl)c2Cl)c(Cl)c1Cl |  |  |  | -5.85 |  |  | 10.2
c1ccc(C2CCc3ccccc3O2)cc1 (stereo not drawn) |  | 46.3 | 332 |  |  |  | 
O=C1c2ccccc2N(C(=O)CN2CCOCC2)CN1c1ccccc1 |  | 136 |  |  |  |  | 
CCCCCCCCCCCC(=O)Oc1c(Cl)c(Cl)c(Cl)c(Cl)c1Cl |  |  |  |  | not readily biodegradable |  | 
CC(C)N(C(=O)SCC(Cl)=C(Cl)Cl)C(C)C | 3.35 | 29 |  | -3.92 |  |  | 
CN(C(=O)Cl)c1ccccc1 |  | 88.5 | 280 |  |  |  | 
O=C=Nc1ccc(N=C=O)cc1 |  | 97.5 | 260 |  |  |  | 
Cc1ccccc1N |  | -16.3 | 200 | -0.585 | readily biodegradable | -5.7 | 
N[C@@H](CSSC[C@H](N)C(=O)O)C(=O)O |  |  |  |  | readily biodegradable |  | 
O=C1OC2(c3ccccc31)c1cc(Br)c(O)c(Br)c1Oc1c2cc(Br)c(O)c1Br |  | 295 |  |  |  |  | 
CCC#CCCCCC(=O)O |  | 14 |  |  |  |  | 
CCOC(=O)C(C)OC(=O)c1cc(Oc2ccc(C(F)(F)F)cc2Cl)ccc1[N+](=O)[O-] (stereo not drawn) | 4 | 45 |  |  |  |  | 
O=C(O)C(F)(F)C(F)(F)C(F)(F)C(F)(F)C(F)(F)C(F)(F)C(F)(F)C(F)(F)C(F)(F)C(F)(F)C(F)(F)F |  | 108 | 249 |  | not readily biodegradable |  | 
NC(=O)CC(N)C(=O)O (stereo not drawn) |  | 234 |  |  |  |  | 
COC1=C(OC)C(=O)C(C)=C(C)C1=O |  | 62.5 |  |  |  |  | 
Cc1ccc(C=O)c(O)c1 |  | 60.5 | 223 |  |  |  | 
O[C@H]1[C@H]2c3cc4c(cc3CN3CCC(=C[C@@H]1O)[C@H]23)OCO4 |  | 280 |  |  |  |  | 
O=C(Cl)c1ccc(Cl)c(Cl)c1 |  | 25 | 242 |  |  |  | 
O=C1C(F)=C(F)C(=O)C(F)=C1F |  | 184 |  |  |  |  | 
COC(Cc1ccccc1)OC |  |  | 220 |  |  |  | 
ClC(Cl)(Br)C(Cl)(Cl)Br |  | 202 |  |  |  |  | 
CCCCCCOC(=O)c1ccccc1C(=O)OCCCCCC | 4.72 | -58 |  | -4.85 |  |  | 

SMILES | log10 Koc (L/kg) | melting point [°C] | boiling point [°C] | log10 vapour pressure (mmHg) | ready biodegradability | log10 Henry constant (atm·m³/mol) | log10 Koa
c1ccc(Nc2ccc(Nc3ccccc3)cc2)cc1 |  |  |  | -8.2 | not readily biodegradable |  | 
Fc1cccc(N=C=S)c1 |  |  | 227 |  |  |  | 
CC(=O)c1ccc([N+](=O)[O-])cc1 |  | 81.8 |  |  |  |  | 
CCCCCCCCOC(=O)CCC |  | -55.6 | 244 |  |  |  | 
N[C@@H](CCC(=O)N[C@@H](CS)C(=O)NCC(=O)O)C(=O)O |  | 195 |  |  |  |  | 
c1ccc(N(CC2CO2)CC2CO2)cc1 (stereo not drawn) |  |  |  |  | not readily biodegradable |  | 
Cl.NCCc1c[nH]c2ccccc12 |  | 255 |  |  |  |  | 
N#CCc1ccc(N)cc1 |  | 46 | 312 |  |  |  | 
BrC(c1ccccc1)(c1ccccc1)c1ccccc1 |  | 153 |  |  |  |  | 
C=Cc1ccccc1Cl |  | -63.1 | 189 | -0.0173 | not readily biodegradable |  | 
Cc1cc(C=O)ccc1O |  | 119 |  |  |  |  | 
COc1ccc(Nc2ccc(OC)cc2)cc1 |  |  |  |  | not readily biodegradable |  | 
CCOc1ccc2ccccc2c1 |  | 37.5 | 282 |  |  |  | 
FC(F)(F)c1cccc(C(F)(F)F)c1 |  |  | 116 |  | not readily biodegradable |  | 
C=CCC(C(C)=O)C(=O)OCC (stereo not drawn) |  |  | 208 |  |  |  | 
ClC1=C(Cl)C2(Cl)C3C(Cl)OC(Cl)C3C1(Cl)C2(Cl)Cl (stereo not drawn) |  | 121 |  | -5.53 |  |  | 
Nc1c(Cl)cccc1C(=O)O |  | 190 |  |  |  |  | 
Cc1cc(C)c(Cl)c(C)c1 |  |  | 205 |  |  |  | 
CCOP(=O)(OCC)SCc1ccccc1 | 2.4 |  |  |  |  |  | 
CCNC |  |  | 36.5 |  |  |  | 
CC(C)OC(=O)Nc1cccc(Cl)c1 | 2.6 | 41 |  | -3.74 | readily biodegradable |  | 
CC=CCCC=CC |  | -76 | 124 |  |  |  | 
CCCCCCCCCCCCCCc1ccccc1 |  | 16 | 359 | -4.62 |  |  | 
CC(C)c1ccccc1O |  | 15.5 | 214 | -1 |  |  | 
C=C(C)C(=O)OCCCCCCCCCCCC |  | -7 |  |  |  |  | 

SMILES | log10 Koc (L/kg) | melting point [°C] | boiling point [°C] | log10 vapour pressure (mmHg) | ready biodegradability | log10 Henry constant (atm·m³/mol) | log10 Koa
C#Cc1ccc(C)cc1 |  |  | 169 |  |  |  | 
CCc1ccccc1CC |  | -31.2 | 184 | 0.0212 | not readily biodegradable |  | 
O=C(O)c1c[nH]c2ccccc12 |  | 206 |  |  |  |  | 
ClC(Br)(Br)Br |  | 55 | 158 |  |  |  | 
NC(=O)c1ccc(Cl)cc1 |  | 174 |  |  |  |  | 
FC(F)(F)C#CC(F)(F)F |  | -117 | -24.6 |  |  |  | 
Cc1cc(C(C)C)ccc1O |  | 8.6 | 230 |  |  |  | 
Cc1cc(C)cc(C(=O)O)c1 |  | 171 |  |  |  |  | 
C=C1C[C@H]2[C@@H]3CCC4=CC(=O)C=C[C@]4(C)[C@H]3[C@@H](O)C[C@]2(C)[C@@]1(O)C(=O)CO |  | 234 |  |  |  |  | 
CC(C)OC(OC(C)C)OC(C)C |  |  | 167 |  |  |  | 
CCOC(=O)c1ccccc1O |  | 1 | 232 | -1.07 | readily biodegradable |  | 
Cc1ccc2cccc(C)c2n1 |  | 27 | 255 |  |  |  | 
CC(=O)OCCBr |  | -13.8 | 162 |  |  |  | 
CCN |  |  | 16.6 | 3.02 | readily biodegradable | -4.91 | 
CCC(CO)[N+](=O)[O-] (stereo not drawn) |  | -47 |  |  |  |  | 
O=CC=Cc1ccco1 |  | 54 |  |  |  |  | 
COC(=O)CCS |  |  | 166 |  | readily biodegradable |  | 
CC1CCCC(C)C1C (stereo not drawn) |  |  | 142 |  |  |  | 
O=c1[nH]cc(N(CCCl)CCCl)c(=O)[nH]1 | 1.46 |  |  |  |  |  | 
CC1COc2ccccc2N1C(=O)C(Cl)Cl (stereo not drawn) |  | 108 |  | -5.35 |  |  | 
C/C(=N/NC(=O)c1ccncc1)c1ccco1 |  | 202 |  |  |  |  | 
O=c1c2ccccc2oc2ccccc12 |  | 174 | 351 |  |  |  | 
CCCC[Si](Cl)(Cl)Cl |  |  | 148 |  |  |  | 
Cc1ccc(-c2ccc(C)cc2C)c(C)c1 |  | 41 | 287 |  |  |  | 

same assay, conditions: fish

SMILES | log10 BCF | log10 biotransformation half-life (days)
c1ccc(Cc2ccccc2)cc1 | 2.94 | 
Clc1ccc(-c2c(Cl)cc(Cl)c(Cl)c2Cl)c(Cl)c1Cl |  | 2.52
c1ccc(Nc2ccc(Nc3ccccc3)cc2)cc1 | 3.12 | 
